Measured values from patent publication US20230279020A9, “CARM1 INHIBITORS AND USES THEREOF” (Epizyme, Inc., priority 2013, published 2023).

These compounds were tested against Human CARM1 (PRMT4) (Homo sapiens (Human), UniProt Q86X55) (assay: CARM1 enzyme assay on peptide substrate (3H-SAM Flashplate)). Conditions: Biochemical potencies, classification codes; read-out: Biochem IC50.
Text: S-adenosylmethionine (SAM), S-adenosylhomocysteine (SAH), bicine, Tween20, dimethylsulfoxide (DMSO), bovine skin gelatin (BSG), sodium butyrate and Tris(2-carboxyethyl)phosphine hydrochloride solution (TCEP) were purchased from Sigma-Aldrich at the highest level of purity possible. ^3H-SAM was purchase from American Radiolabeled Chemicals with a specific activity of 80 Ci/mmol. 384-well streptavidin Flashplates were purchased from PerkinElmer.
Peptide representative of human histone H3 residues 16-30 was synthesized with an N-terminal linker-affinity tag motif and a C-terminal amide cap by 21st Century Biochemicals. […] The sequence was Biot-Ahx-[…]-amide and contained a monomethylated arginine at position 26 (SEQ ID NO.:1).
The gene sequence encoding isoform1 containing a deletion of amino acids 539-561 was amplified subsequently and subcloned into pFastBacMam (Viva Biotech).
Recombinant baculovirus were generated according to Bac-to-Bac kit instructions (Life Technologies). Protein over-expression was accomplished by infecting exponentially growing HEK 293F cell culture at 1.3×10^6cell/ml with virus (MOI=10) in the presence of 8 mM sodium butyrate. Infections were carried out at 37° C. for 48 hours, harvested by centrifugation, and stored at −80° C. for purification.
Expressed full-length human Flag- and His-tagged CARM1 protein was purified from cell paste by anti-flag M2 affinity chromatography with resin equilibrated with buffer containing 20 mM Tris, 150 mM NaCl, 5% glycerol, pH 7.8. Column was washed with 500 mM NaCl in buffer A and Flag-CARM1-His was eluted with 200 ug/ml FLAG peptide in buffer A. Pooled fractions were dialyzed in 20 mM Tris, 150 mM NaCl, 5% glycerol and 1 mM DTT, pH 7.8.
The assays were all performed in a buffer consisting of 20 mM Bicine (pH=7.6), 1 mM TCEP, 0.005% BSG, and 0.002% Tween 20, prepared on the day of use. Compounds in 100% DMSO (1 ul) were spotted into a polypropylene 384-well V-bottom plates (Greiner) using a Platemate Plus outfitted with a 384-channel head (Thermo Scientific). DMSO (1 ul) was added to Columns 11, 12, 23, 24, rows A-H for the maximum signal control and 1 ul of SAH, a known product and inhibitor of CARM1, was added to columns 11, 12, 23, 24, rows I-P for the minimum signal control. A cocktail (40 ul) containing the CARM1 enzyme was added by Multidrop Combi (Thermo-Fisher). The compounds were allowed to incubate with CARM1 for 30 min at room temperature, then a cocktail (10 ul) containing ^3H-SAM and peptide was added to initiate the reaction (final volume=51 ul). The final concentrations of the components were as follows: CARM1 was 0.25 nM, ^3H-SAM was 30 nM, peptide was 250 nM, SAH in the minimum signal control wells was 1 mM, and the DMSO concentration was 2%. The assays were stopped by the addition of non-radiolabeled SAM (10 ul) to a final concentration of 300 uM, which dilutes the ^3H-SAM to a level where its incorporation into the peptide substrate is no longer detectable. 50 ul of the reaction in the 384-well polypropylene plate was then transferred to a 384-well Flashplate and the biotinylated peptides were allowed to bind to the streptavidin surface for at least 1 hour before being washed once with 0.1% Tween20 in a Biotek ELx405 plate washer. The plates were then read in a PerkinElmer TopCount plate reader to measure the quantity of ^3H-labeled peptide bound to the Flashplate surface, measured as disintegrations per minute (dpm) or alternatively, referred to as counts per minute (cpm).
where dpm=disintegrations per minute, cmpd=signal in assay well, and min and max are the respective minimum and maximum signal controls.
where top and bottom are the normally allowed to float, but may be fixed at 100 or 0 respectively in a 3-parameter fit. The Hill Coefficient normally allowed to float but may also be fixed at 1 in a 3-parameter fit. Y is the % inhibition and X is the compound concentration.

Sequence of Human CARM1 (PRMT4) (Q86X55 other isoform, or with tags, fused parts or gaps isoform Q86X55-1): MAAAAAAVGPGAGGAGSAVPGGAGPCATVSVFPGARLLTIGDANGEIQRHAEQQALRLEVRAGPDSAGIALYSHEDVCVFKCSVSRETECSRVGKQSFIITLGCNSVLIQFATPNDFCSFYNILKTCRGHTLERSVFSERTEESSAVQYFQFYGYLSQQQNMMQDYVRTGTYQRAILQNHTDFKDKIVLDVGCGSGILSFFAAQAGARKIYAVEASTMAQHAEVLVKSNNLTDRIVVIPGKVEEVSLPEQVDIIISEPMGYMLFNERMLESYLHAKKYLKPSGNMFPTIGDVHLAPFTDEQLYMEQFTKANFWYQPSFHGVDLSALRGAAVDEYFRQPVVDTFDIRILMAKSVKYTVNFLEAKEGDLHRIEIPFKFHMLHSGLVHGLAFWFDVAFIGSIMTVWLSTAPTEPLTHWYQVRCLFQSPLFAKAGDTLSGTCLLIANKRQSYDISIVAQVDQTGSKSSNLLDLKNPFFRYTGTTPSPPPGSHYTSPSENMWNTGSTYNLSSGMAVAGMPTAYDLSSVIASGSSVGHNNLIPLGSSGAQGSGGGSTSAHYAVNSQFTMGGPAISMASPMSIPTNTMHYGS

Row | SMILES | IC50
1 | CCOC(=O)N1CCCC[C@@H]1CNc1nc(-c2cc(OC[C@H](O)CNC)ccc2Cl)nc(-c2c(C)noc2C)c1Cl [Example 153-3] | < 100 nM
2 | CNCC(O)COc1cc(Cl)cc(-c2nc(-c3ccncc3C3CC3)cc(N(C)C3CCOCC3)n2)c1 (stereo not drawn) [Example 522-1a] | < 100 nM
3 | CNCC(O)COc1cccc(-c2nc(N[C@H]3C[C@@H](O)C3)c(C)c(-c3c(C)noc3C)n2)c1 (stereo partly drawn) [Example 256-1a] | < 100 nM
4 | CCOC(=O)N1CCN(c2nc(-c3cccc(OCC(O)CNC)c3)nc(-c3c(C)noc3C)c2C)CC1 (stereo not drawn) [Example 77-1a] | < 100 nM
5 | CNCC(O)COc1cccc(-c2nc(N[C@@H]3CCOC3)c(C)c(N3CCC(N4CCOCC4)CC3)n2)c1 (stereo partly drawn) [Example 367-1a] | < 100 nM
6 | CNCC(O)COc1cccc(-c2nc(-c3sc(C)nc3C)cc(N(C)C3CCOCC3)n2)c1 (stereo not drawn) [Example 569-1a] | < 100 nM
7 | CNCC(O)COc1cccc(-c2nc(-c3c(C)noc3C)c(C)c(N3CCO[C@H](C)C3)n2)c1 (stereo partly drawn) [Example 211-1a] | < 100 nM
8 | CNCC(O)COc1cccc(-c2nc(-c3c(C)noc3C)c(C)c(N3CCN(C(=O)OCCF)CC3)n2)c1 (stereo not drawn) [Example 121-1a] | < 100 nM
9 | CNCC(O)COc1cccc(-c2nc(NC3CCOC3)cc(-c3c(C)noc3C)n2)c1 (stereo not drawn) [Example 31-1a] | < 100 nM
10 | CNCC(O)COc1cccc(-c2nc(NC3CCOCC3)cc(-c3cc4ccccc4o3)n2)c1 (stereo not drawn) [Example 46-1] | < 100 nM
11 | CNCC(O)COc1cccc(-c2nc(N[C@@H]3CCN(C(=O)OC)C[C@H]3F)c(C)c(-c3c(C)noc3C)n2)c1 (stereo partly drawn) [Example 228-1a] | < 100 nM
12 | CNCC(O)COc1cccc(-c2nc(N[C@@H]3CCOC3)c(C)c(-c3ccncc3)n2)c1 (stereo partly drawn) [Example 332-1a] | < 100 nM
13 | CNCC(O)COc1cccc(-c2nc(-c3c(C)noc3C)c(C)c(N3C[C@@H]4C[C@H]3CN4C)n2)c1 (stereo partly drawn) [Example 84-1a] | < 100 nM
14 | CNCC(O)COc1cccc(-c2nc(-c3cnc4c(C(=O)N(C)C)cnn4c3)cc(N(C)C3CCOCC3)n2)c1 (stereo not drawn) [Example 514-1a] | < 100 nM
15 | CNCC(O)COc1cccc(-c2nc(OC3CCOCC3)c(C)c(-c3c(C)noc3C)n2)c1 (stereo not drawn) [Example 181-1a] | < 100 nM
16 | CNCC(O)COc1cccc(-c2nc(Nc3cc(C)on3)c(C)c(-c3c(C)noc3C)n2)c1 (stereo not drawn) [Example 233-1a] | < 100 nM
17 | CNCC(O)COc1cccc(-c2nc(NC3C[C@H]4CC[C@@H](C3)N4C(=O)OC)c(C)c(-c3c(C)noc3C)n2)c1 (stereo partly drawn) [Example 242-1a] | < 100 nM
18 | CNCC(O)COc1cccc(-c2nc(NC3CCN(C(=O)OC)C3)c(C)c(-c3c(C)noc3C)n2)c1 (stereo not drawn) [Example 186-1a] | < 100 nM
19 | CNC[C@@H](O)COc1cccc(-c2nc(-c3cn(S(C)(=O)=O)c4ncncc34)cc(N(C)C3CCOCC3)n2)c1 [Example 511-1a] | < 100 nM
20 | CNC[C@H](O)COc1ccc(F)c(-c2nc(-c3c(C)noc3C)c(C)c(N3CCC4(CCN(C(=O)OC)C4)C3)n2)c1 (stereo partly drawn) [Example 106-3] | < 100 nM
21 | CNCC(O)COc1cccc(-c2nc(-c3ccc(N4CCOCC4)nn3)cc(N(C)C3CCOCC3)n2)c1 (stereo not drawn) [Example 512-1a] | < 100 nM
22 | CNCC(O)COc1cccc(-c2nc(N[C@H]3C[C@@H](O)C3)cc(-c3c(C)noc3C)n2)c1 (stereo partly drawn) [Example 41-1a] | < 100 nM
23 | CNCC(O)COc1cccc(-c2nc(NC3CCOC3)c(C)c(N3CCN(C)C(C)(C)C3)n2)c1 (stereo not drawn) [Example 455-1a] | < 100 nM
24 | CCOC(=O)N1CCCCC1CNc1nc(-c2cc(OC[C@H](O)CNC)ccc2Cl)nc(-c2c(C)noc2C)c1C (stereo partly drawn) [Example 28-3] | < 100 nM
25 | CNCC(O)COc1cccc(-c2nc(-c3c(C)noc3C)cc(N3CCN(C(=O)N(C)C)[C@H](C)C3)n2)c1 (stereo partly drawn) [Example 146-1a] | < 100 nM
26 | CNC[C@@H](O)COc1ccc(Cl)c(-c2nc(-c3c(C)noc3C)c(C)c(N3Cc4cc(Cl)cnc4C3)n2)c1 [Example 156-3] | < 100 nM

Row | SMILES | IC50
27 | CNCC(O)COc1cccc(-c2nc(NC3CCOC3)c(C)c(N3CCN(CC(F)F)C(C)(C)C3)n2)c1 (stereo not drawn) [Example 457-1a] | < 100 nM
28 | CNC[C@@H](O)COc1ccc(Cl)c(-c2nc(NC[C@@H]3CCCO3)c(C)c(-c3c(C)noc3C)n2)c1 [Example 131-3] | < 100 nM
29 | CNCC(O)COc1cccc(-c2nc(NC3CCOC3)c(C)c(N3CCN(C(C)=O)C[C@H]3C)n2)c1 (stereo partly drawn) [Example 421-1a] | < 100 nM
30 | CCOC(=O)N1CCOC[C@H]1CNc1nc(-c2cc(OC[C@@H](O)CNC)ccc2F)nc(-c2c(C)noc2C)c1C [Example 59-3] | < 100 nM
31 | CNCC(O)COc1cccc(-c2nc(-c3c(C)noc3C)cc(N3C[C@@H]4C[C@H]3CN4S(C)(=O)=O)n2)c1 (stereo partly drawn) [Example 80-1a] | < 100 nM
32 | CNC[C@@H](O)COc1ccc(Cl)c(-c2nc(NC3CC(F)C3)c(C)c(-c3c(C)noc3C)n2)c1 (stereo partly drawn) [Example 188-3] | < 100 nM
33 | CNC[C@@H](O)COc1ccc(Cl)c(-c2nc(-c3c(C)noc3C)c(C)c(N3Cc4nn(C)c(C)c4C3)n2)c1 [Example 252-3] | < 100 nM
34 | CNCC(O)COc1cccc(-c2nc(NC3CCCN(C4COC4)C3)c(C)c(-c3c(C)noc3C)n2)c1 (stereo not drawn) [Example 246-1a] | < 100 nM
35 | CNCC(O)COc1cccc(-c2nc(C3CCNCC3)cc(N(C)C3CCOCC3)n2)c1 (stereo not drawn) [Example 615-1a] | < 100 nM
36 | CNC[C@@H](O)COc1ccc(Cl)c(-c2nc(N[C@@H]3CCN(C(=O)OC)[C@H](C)C3)c(C)c(-c3c(C)noc3C)n2)c1 [Example 135-3] | < 100 nM
37 | CNCC(O)COc1cccc(-c2nc(NC3CCOCC3)cc(-c3c(C)noc3C)n2)c1 (stereo not drawn) [Example 33-1] | < 100 nM
38 | CNC[C@@H](O)COc1ccc(Cl)c(-c2nc(N[C@@H]3CO[C@H](C)C3)c(C)c(-c3c(C)noc3C)n2)c1 [Example 179-3] | < 100 nM
39 | CNCC(O)COc1cccc(-c2nc(N(C)c3cncnc3)cc(N(C)C3CCOCC3)n2)c1 (stereo not drawn) [Example 487-1a] | < 100 nM
40 | CNCC(O)COc1cccc(-c2nc(N[C@@H]3CCOC3)c(C)c(-c3cnc4[nH]ccc4c3)n2)c1 (stereo partly drawn) [Example 355-1a] | < 100 nM
41 | CNCC(O)COc1cccc(-c2nc(-c3ncc(C)n3C)cc(N(C)C3CCOCC3)n2)c1 (stereo not drawn) [Example 491-1a] | < 100 nM
42 | CNCC(O)COc1cccc(-c2nc(-c3c(C)noc3C)cc(N3CCN(CC(F)F)CC3)n2)c1 (stereo not drawn) [Example 79-1a] | < 100 nM
43 | CNCC(O)COc1cccc(-c2nc(-c3c(C)noc3C)c(C)c(N3CCCC4(CN(C(=O)N(C)C)C4)C3)n2)c1 (stereo not drawn) [Example 297-1a] | < 100 nM
44 | CCS(=O)(=O)N1CC(Nc2nc(-c3cccc(OCC(O)CNC)c3)nc(-c3c(C)noc3C)c2C)C1 (stereo not drawn) [Example 273-1a] | < 100 nM
45 | CNCC(O)COc1cccc(-c2nc(N[C@@H]3CCOC3)c(C)c(N3CCNCC3)n2)c1 (stereo partly drawn) [Example 422-1a] | < 100 nM
46 | CNCC(O)COc1ccc(Cl)c(-c2nc(NC3CCOCC3)c(C)c(-c3c(C)noc3C)n2)c1 (stereo not drawn) [Example 29-3] | < 100 nM
47 | CNCC(O)COc1cccc(-c2nc(N3CCOCC3)c(C)c(N(C)[C@H]3CCOC3)n2)c1 (stereo partly drawn) [Example 37-1] | < 100 nM
48 | CNC[C@H](O)COc1ccc(Cl)c(-c2nc(N[C@@H]3CCOC3)c(C)c(-c3c(C)noc3C)n2)c1 [Example 94-3] | < 100 nM
49 | CNCC(O)COc1cccc(-c2nc(N[C@@H]3CCOC3)c(C)c(N3CCN(C4CC4)[C@H](C)C3)n2)c1 (stereo partly drawn) [Example 466-1a] | < 100 nM
50 | CNCC(O)COc1cccc(-c2nc(N[C@@H]3CCN(C(=O)OC(C)(C)C)C[C@@H]3F)c(C)c(-c3c(C)noc3C)n2)c1 (stereo partly drawn) [Example 227-1a] | < 100 nM
51 | CNC[C@@H](O)COc1ccc(Cl)c(-c2nc(-c3c(C)noc3C)c(C)c(N3CC4(CCOC4)C3)n2)c1 [Example 120-3] | < 100 nM
